Assay results as given in the supplement of paper PMC10883282.
± gives the standard deviation of the averaged measurements.

What was measured:
Test in all cases: relative viability vs DMSO control (72 h) (fraction); higher = more viable cells
[1] = test system: A204
How it was run: (§1)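 ATPLite readings, expressed as percent growth and averaged over up to triplicate wells, provided relative viability. Before reading, sarcoma cell lines seeded in 384-well plates to reach 80–90% confluence received 2.5 µl of serially diluted compound after 24 h, from source plates of 10 mM to 0.0002 mM. Plates were held 72 h at 37 °C, 5% CO2, with 0.1% DMSO as vehicle and a 5 µM positive control. The data were rescaled to 1 for full and 0 for none.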

[2] = test system: G401
How it was run: as §1

[3] = test system: HS729
How it was run: as §1

[4] = test system: HT1080
How it was run: as §1

[5] = test system: KHOS-NP
How it was run: as §1

[6] = test system: MES-SA
How it was run: as §1

[7] = test system: SK-LMS-1
How it was run: as §1

[8] = test system: SW1353
How it was run: as §1

[9] = test system: SW684
How it was run: as §1

[10] = test system: SW872
How it was run: as §1

[11] = test system: SYO-1
How it was run: as §1

[12] = test system: VA-ES-BJ
How it was run: as §1

O=c1sn(-c2cccc3ccccc23)c(=O)n1Cc1ccccc1 [Tideglusib]
Conditions	relative viability
[1], 0.00017 µM	1.09 ± 0.032
[1], 0.00051 µM	1.131 ± 0.0063
[1], 0.00152 µM	1.12 ± 0.018
[1], 0.00457 µM	1.12 ± 0.03
[1], 0.01372 µM	1.14 ± 0.014
[1], 0.04115 µM	1.11 ± 0.015
[1], 0.1235 µM	1.12 ± 0.022
[1], 0.3704 µM	1.12 ± 0.015
[1], 1.111 µM	1.134 ± 0.01
[1], 3.333 µM	1.1 ± 0.033
[1], 10 µM	1.07 ± 0.064
[2], 0.00017 µM	1.08 ± 0.056
[2], 0.00051 µM	1.12 ± 0.062
[2], 0.00152 µM	1.08 ± 0.035
[2], 0.00457 µM	1.1 ± 0.03
[2], 0.01372 µM	1.08 ± 0.035
[2], 0.04115 µM	1.07 ± 0.011
[2], 0.1235 µM	1.05 ± 0.045
[2], 0.3704 µM	1.04 ± 0.035
[2], 1.111 µM	0.984 ± 0.033
[2], 3.333 µM	0.9812 ± 0.0095
[2], 10 µM	0.918 ± 0.014
[3], 0.00017 µM	1.1 ± 0.077
[3], 0.00051 µM	1.07 ± 0.044
[3], 0.00152 µM	1.07 ± 0.066
[3], 0.00457 µM	1.04 ± 0.067
[3], 0.01372 µM	1.03 ± 0.1
[3], 0.04115 µM	1 ± 0.094
[3], 0.1235 µM	0.972 ± 0.053
[3], 0.3704 µM	0.956 ± 0.088
[3], 1.111 µM	0.908 ± 0.041
[3], 3.333 µM	0.933 ± 0.065
[3], 10 µM	0.861 ± 0.07
[4], 0.00017 µM	1.06 ± 0.037
[4], 0.00051 µM	1.08 ± 0.019
[4], 0.00152 µM	1.07 ± 0.057
[4], 0.00457 µM	1.1 ± 0.02
[4], 0.01372 µM	1.069 ± 0.0096
[4], 0.04115 µM	1.07 ± 0.04
[4], 0.1235 µM	1.06 ± 0.026
[4], 0.3704 µM	1.09 ± 0.035
[4], 1.111 µM	1.07 ± 0.013
[4], 3.333 µM	1.097 ± 0.0039
[4], 10 µM	1.02 ± 0.057
[5], 0.00017 µM	1.11 ± 0.016
[5], 0.00051 µM	1.112 ± 0.003
[5], 0.00152 µM	1.1 ± 0.019
[5], 0.00457 µM	1.114 ± 0.0055
[5], 0.01372 µM	1.12 ± 0.016
[5], 0.04115 µM	1.113 ± 0.0041
[5], 0.1235 µM	1.108 ± 0.0096
[5], 0.3704 µM	1.1 ± 0.012
[5], 1.111 µM	1.075 ± 0.0059
[5], 3.333 µM	1.08 ± 0.04
[5], 10 µM	1.07 ± 0.029
[6], 0.00017 µM	0.972 ± 0.03
[6], 0.00051 µM	0.971 ± 0.02
[6], 0.00152 µM	0.946 ± 0.031
[6], 0.00457 µM	0.968 ± 0.016
[6], 0.01372 µM	0.962 ± 0.029
[6], 0.04115 µM	0.963 ± 0.016
[6], 0.1235 µM	0.959 ± 0.044
[6], 0.3704 µM	0.95 ± 0.02
[6], 1.111 µM	0.94 ± 0.016
[6], 3.333 µM	0.924 ± 0.016
[6], 10 µM	0.878 ± 0.049
[7], 0.00017 µM	1.02 ± 0.018
[7], 0.00051 µM	1.01 ± 0.046
[7], 0.00152 µM	1.02 ± 0.018
[7], 0.00457 µM	1.01 ± 0.054
[7], 0.01372 µM	0.994 ± 0.036
[7], 0.04115 µM	1.02 ± 0.027
[7], 0.1235 µM	1.02 ± 0.03
[7], 0.3704 µM	0.993 ± 0.033
[7], 1.111 µM	1 ± 0.038
[7], 3.333 µM	1.01 ± 0.031
[7], 10 µM	0.986 ± 0.027
[8], 0.00017 µM	1.07 ± 0.037
[8], 0.00051 µM	1.05 ± 0.024
[8], 0.00152 µM	1.08 ± 0.031
[8], 0.00457 µM	1.04 ± 0.025
[8], 0.01372 µM	1.02 ± 0.033
[8], 0.04115 µM	1.05 ± 0.02
[8], 0.1235 µM	1.03 ± 0.019
[8], 0.3704 µM	0.966 ± 0.052
[8], 1.111 µM	1.01 ± 0.016
[8], 3.333 µM	0.987 ± 0.022
[8], 10 µM	0.827 ± 0.1
[9], 0.00017 µM	1.17 ± 0.021
[9], 0.00051 µM	1.19 ± 0.047
[9], 0.00152 µM	1.21 ± 0.12
[9], 0.00457 µM	1.14 ± 0.09
[9], 0.01372 µM	1.16 ± 0.098
[9], 0.04115 µM	1.14 ± 0.074
[9], 0.1235 µM	1.17 ± 0.023
[9], 0.3704 µM	1.11 ± 0.12
[9], 1.111 µM	1.16 ± 0.032
[9], 3.333 µM	1.09 ± 0.022
[9], 10 µM	1.1 ± 0.067
[10], 0.00017 µM	1.1 ± 0.063
[10], 0.00051 µM	1.09 ± 0.027
[10], 0.00152 µM	1.09 ± 0.037
[10], 0.00457 µM	1.09 ± 0.011
[10], 0.01372 µM	1.09 ± 0.03
[10], 0.04115 µM	1.1 ± 0.013
[10], 0.1235 µM	1.08 ± 0.051
[10], 0.3704 µM	1.05 ± 0.022
[10], 1.111 µM	1.07 ± 0.024
[10], 3.333 µM	1.07 ± 0.021
[10], 10 µM	1.03 ± 0.047
[11], 0.00017 µM	1.01 ± 0.036
[11], 0.00051 µM	0.987 ± 0.046
[11], 0.00152 µM	0.999 ± 0.033
[11], 0.00457 µM	0.97 ± 0.068
[11], 0.01372 µM	0.956 ± 0.054
[11], 0.04115 µM	0.944 ± 0.033
[11], 0.1235 µM	0.949 ± 0.051
[11], 0.3704 µM	0.953 ± 0.067
[11], 1.111 µM	0.969 ± 0.071
[11], 3.333 µM	0.944 ± 0.058
[11], 10 µM	0.891 ± 0.067
[12], 0.00017 µM	1.1 ± 0.058
[12], 0.00051 µM	1.12 ± 0.051
[12], 0.00152 µM	1.08 ± 0.035
[12], 0.00457 µM	1.1 ± 0.052
[12], 0.01372 µM	1.08 ± 0.057
[12], 0.04115 µM	1.08 ± 0.053
[12], 0.1235 µM	1.08 ± 0.059
[12], 0.3704 µM	1.04 ± 0.046
[12], 1.111 µM	1.07 ± 0.054
[12], 3.333 µM	1.04 ± 0.037
[12], 10 µM	1.02 ± 0.038
